Source: patent publication US8389739B1, “Modulators of retinoid-related orphan receptor gamma” (Orphagen Pharmaceuticals, priority 2006, dated 2013)
Like-named read-outs stand apart in the source and are kept apart here.

Experiments:
[1] = molecular target: T1, mLXRα (Liver X receptor alpha) (Mus musculus, UniProt Q9Z0Y9); experiment: Transcriptional assay of LXRα (Gal4-LXRα hybrid); assay type: cell-based; settings: for EC50: Table 7, no unit printed for this column (b114 gives 1.5 μM for OR-1050), read-out: Transcriptional Assay of LXRα EC50; for specificity for RORγ versus LXRα: comparison of transcriptional assays for RORγ and LXRα (Table 7)
T1 construct: 172-455; expressed in transfected cells; host or cells: CHO cells, transient transfection
T1 sequence (Q9Z0Y9 172-445 limits assumed): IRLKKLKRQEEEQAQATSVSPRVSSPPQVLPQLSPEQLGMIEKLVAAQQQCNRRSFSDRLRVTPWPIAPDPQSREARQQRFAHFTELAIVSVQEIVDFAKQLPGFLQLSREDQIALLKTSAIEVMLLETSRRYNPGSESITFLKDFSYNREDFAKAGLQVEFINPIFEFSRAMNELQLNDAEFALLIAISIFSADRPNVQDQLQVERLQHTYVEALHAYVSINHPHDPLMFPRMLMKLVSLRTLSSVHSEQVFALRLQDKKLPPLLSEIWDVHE
Procedure: (§1) A firefly luciferase reporter gene for Gal4 DBD hybrid receptors, such as Gal4-RORγ, contains five copies of the Gal4 17-mer response element in its promoter and the coding sequence for firefly luciferase (pG5-luc, Promega). CHO (Chinese Hamster Ovary) cells were cultured in Ham's F12 medium supplemented with 10% fetal calf serum (Gemini Biologicals), 10 μg/ml penicillin and streptomycin, and were maintained in a humidified 37° C. incubator (Thermo Electron, Steri-Cycle) with 5% CO2. 24 hours before transfection, cells were plated in T175 flasks (5×10^6 cells/flask) or T75 flasks (1.7×10^6 cells/flask). Transient transfection of CHO cells was performed using TransIT-CHO reagents (Minis, Madison, Wis.) with a mixing ratio of 2:6:1 between plasmid DNA (in μg), TransIT-CHO (in μl) and CHO-mojo (in μl).
(§2) Plates are maintained at 37° C. in a humidified atmosphere with 7% CO2 overnight. Four (4) hours after cell seeding, compounds dissolved in DMSO at 10 mM were added to cells at final concentrations of 20 micromolar (μM) to 20 nanomolar (nM) in 0.2% DMSO in triplicate plates. Approximately 40 hours later, cytotoxicity in the assay well was characterized by addition of the dye resazurin (O'Brien, Wilson et al. 2000) to a final concentration of 3 μM. […] Percent viability was determined as 2 hour fluorescence, minus background at t=0 hours, normalized to DMSO controls. For detection of luciferase activity, media was removed from plates after the measurement of resazurin conversion, and SteadyLite luciferase reagent (Perkin-Elmer) was added (30 μl/well). Luminescence is detected with a Victor 2-V plate reader (Perkin-Elmer) and normalized to luciferase activity of DMSO control wells alone.
A transcriptional assay for LXRα, using a Gal4-LXRα hybrid, was implemented in order to compare RORγ ligand potencies. In addition to LXRα, transcriptional assays for a number of other major nuclear receptors were developed.

mRORγ LBD = molecular target: T2, mRORγ LBD (Mus musculus, UniProt P51450); experiment: Biochemical assay, coregulatory peptide recruitment to GST-RORγ LBD (FRET)
T2 construct: made in house; host or cells: Sf9 insect cells, baculovirus; cleared lysate used directly
T2 sequence (P51450 251-516): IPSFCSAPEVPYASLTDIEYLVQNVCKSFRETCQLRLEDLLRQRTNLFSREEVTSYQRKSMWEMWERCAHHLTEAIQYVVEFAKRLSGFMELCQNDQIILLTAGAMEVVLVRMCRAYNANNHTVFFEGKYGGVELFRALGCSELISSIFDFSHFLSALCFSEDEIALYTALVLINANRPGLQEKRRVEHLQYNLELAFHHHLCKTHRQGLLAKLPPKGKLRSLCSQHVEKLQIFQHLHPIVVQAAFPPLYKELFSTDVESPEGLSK
Description: GST-RORγ was generated by subcloning the RORγ-LBD into pET-41a, a vector which expresses GST fusion proteins in bacteria.
The cloning steps for GST-RORγ were as follows. The mRORγ LBD was excised from Gal4-mRORγ (see above for cloning steps) at BamHI and HindIII sites of Sequence 1 and cloned into the corresponding sites of pET-41a(+) (EMD Biosciences, San Diego, Calif.). A GST-mRORγ fragment was then excised from pET-41a(+) at XbaI and XhoI sites and cloned into a pcDNA3.1vector (Invitrogen, Carlsbad, Calif.) restricted at NheI and XhoI sites. Plasmid GST-mRORγ-pcDNA3.1 was used as a PCR template to generate a GST-mRORγ fragment that was later cloned into pENTR/D-TOPO vector (Invitrogen, Carlsbad, Calif.) by standard cloning techniques recommended by the manufacturer of the vector. The nucleotide sequence of GST-mRORγ is shown below:
For baculoviral expression of RORγ, the cDNA fragment of GST-RORγ— LBD, was subcloned from pET-41a into the pENTR/D-TOPO vector using a commercially-available kit (BaculoDirect, Invitrogen). Briefly, GST-RORγ carried by pENTR/D-TOPO was transfected into mono-layer Sf9 cells (8×10^5/well in 6-well plates) by Cellfectin (Invitrogen). Sf9 cells were incubated at 27° C. in a non-humidified incubator for 72 hours. Cell media was collected as P1 viral stock and used to further infect Sf9 cells to generate P2 and P3 virus. […] A plaque assay was performed to determine the titer of P3 virus and to isolate single plaques. P4 virus was generated from a single plaque and propagated on a larger scale.
Adherent SF9 cells were infected with baculovirus carrying GST-RORγ and were cultured for 72 hours. Sf9 cell were then subject to a brief sonication in a lysis buffer (20 mM phosphate, pH 6.8, 50 mM KCl, 50 mM NaCl, 0.5 mM EDTA, 50% glycerol, 0.001% NP-40 and 1 mM DTT) and centrifuged at 3000 rpm for 15 minutes. […] Cleared cell lysate was stored at −70° C. and is directly utilized in the coregulatory peptide recruitment assay.
The labeled probes anti-GST-APC and SA-RPE were purchased from Prozyme (San Leandro, Calif.). Compounds were added directly from a DMSO solution to a final concentration of 1-2% DMSO. Fluorescence was measured on a Wallac Victor 2 V plate reader equipped with a 670/40 nm filter (Omega Optical, Brattleboro, Vt.) for APC emission (Channel A) and a 600/25 bandpass filter for monitoring the RPE emission (Channel B).

mRORγ = molecular target: T3, mRORγ (Mus musculus, UniProt P51450); experiment: Transcriptional assay, Gal4-mRORγ with luciferase reporter in CHO cells; assay type: cell-based
T3 construct: expressed in transfected cells; host or cells: CHO cells, transient transfection
Procedure: The complete Gal4-mRORγ nucleotide sequence is shown below:
as §1, §2

human RORγ = molecular target: T4, human RORγ (Homo sapiens, UniProt P51449); experiment: Transcriptional assay of human RORγ (Gal4-hRORγ); assay type: cell-based; settings: Table 4B
T4 construct: expressed in transfected cells; host or cells: CHO cells, transient transfection
T4 sequence (P51449 253-518): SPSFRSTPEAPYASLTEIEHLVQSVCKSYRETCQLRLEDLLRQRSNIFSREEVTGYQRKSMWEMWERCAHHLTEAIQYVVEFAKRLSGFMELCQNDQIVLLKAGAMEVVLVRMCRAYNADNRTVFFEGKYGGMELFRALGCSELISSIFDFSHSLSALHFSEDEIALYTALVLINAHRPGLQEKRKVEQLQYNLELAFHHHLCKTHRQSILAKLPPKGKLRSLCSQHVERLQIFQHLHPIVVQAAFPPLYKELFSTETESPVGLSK
Procedure: The complete Gal4-hRORγ nucleotide sequence is shown below:
as §1, §2

[2] = molecular target: T5, hPR (progesterone receptor) (Homo sapiens, UniProt P06401); experiment: Crossreactive receptor transcriptional assay (Gal4 hybrid); assay type: cell-based; settings: activity of standard ligand at 20 μM
T5 construct: 687-933; expressed in transfected cells; host or cells: CHO cells, transient transfection
T5 sequence (P06401 687-933): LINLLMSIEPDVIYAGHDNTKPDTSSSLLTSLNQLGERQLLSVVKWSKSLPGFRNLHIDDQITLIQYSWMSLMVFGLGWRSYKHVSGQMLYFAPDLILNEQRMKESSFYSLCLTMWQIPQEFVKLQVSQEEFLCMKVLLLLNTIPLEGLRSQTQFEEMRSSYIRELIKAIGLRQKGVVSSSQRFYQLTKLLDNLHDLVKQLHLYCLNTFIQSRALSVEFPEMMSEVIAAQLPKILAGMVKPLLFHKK
Procedure: as §1, §2

hPPARα = molecular target: T6, hPPARα (Homo sapiens, UniProt Q07869); experiment: as above; assay type: cell-based; settings: activity of standard ligand at 20 μM
T6 construct: 166-468; expressed in transfected cells; host or cells: CHO cells, transient transfection
T6 sequence (Q07869 166-468): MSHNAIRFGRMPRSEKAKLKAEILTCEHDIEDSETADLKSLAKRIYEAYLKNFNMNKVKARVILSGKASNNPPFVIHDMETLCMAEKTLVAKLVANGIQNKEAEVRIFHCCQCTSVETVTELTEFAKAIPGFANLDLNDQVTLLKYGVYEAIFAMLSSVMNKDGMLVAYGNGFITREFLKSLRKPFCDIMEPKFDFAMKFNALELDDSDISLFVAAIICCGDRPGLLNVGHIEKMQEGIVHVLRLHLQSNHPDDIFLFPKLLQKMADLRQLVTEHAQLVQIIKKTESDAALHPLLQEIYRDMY
Procedure: as §1, §2

[3] = test system: TH-17 cell differentiation from naïve CD4+ T cells; experiment: Differentiation of naïve CD4+ T cells, intracellular IL-17/IFN-γ staining by FACS (TH-17 protocol, TGFβ + IL-6); assay type: cell-based, mouse; settings: Table 8, naïve CD4 cells, 5 days, mean ±SD
[4] = Table 1, mRORγ and peptide K1, read-out: Assay EC50 in micromolar at mRORγ Biochemical
[5] = Table 7, taken from Table 1 (peptide K1), read-out: Assay EC50 in micromolar at mRORγ Biochemical
[6] = Table 1, antagonists, inhibition of basal Gal4-mRORγ transcription in CHO cells, read-out: Assay EC50 in micromolar at mRORγ Transcriptional
[7] = Table 7, taken from Table 1, read-out: Assay EC50 in micromolar at mRORγ Transcriptional
[8] = Table 4A, peptide K1, no agonist present, medians of two or more assays, unit inferred, read-out: EC50 Biochemical
[9] = Table 4A, medians of two or more assays, unit inferred, read-out: EC50 Transcriptional

T3 sequence (P51450 with tags, fused parts or gaps): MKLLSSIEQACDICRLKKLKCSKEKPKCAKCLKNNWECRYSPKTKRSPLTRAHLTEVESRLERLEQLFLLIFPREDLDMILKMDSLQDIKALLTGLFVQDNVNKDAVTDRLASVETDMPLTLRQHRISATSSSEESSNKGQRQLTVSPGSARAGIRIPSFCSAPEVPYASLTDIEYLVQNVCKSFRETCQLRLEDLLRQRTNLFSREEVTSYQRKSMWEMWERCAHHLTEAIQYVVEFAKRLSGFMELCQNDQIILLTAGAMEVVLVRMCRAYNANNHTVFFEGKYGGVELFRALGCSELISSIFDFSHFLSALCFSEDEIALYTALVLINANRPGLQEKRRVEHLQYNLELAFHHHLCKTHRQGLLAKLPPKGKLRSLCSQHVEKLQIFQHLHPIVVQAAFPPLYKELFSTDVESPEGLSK

CCCCc1ccc(S(=O)(=O)N(CC)c2ccc(C(O)(C(F)(F)F)C(F)(F)F)cc2)cc1 [OR-1047, 4-Butyl-N-ethyl-N-[4-(2,2,2-trifluoro-1-hydroxy-1-trifluoromethyl-ethyl)-phenyl]-benzenesulfonamide]
Emax [1]: < 5% | EC50 [1]: > 20000 nM | specificity for RORγ versus LXRα [1]: more specific for RORγ than LXRα | EC50 (mRORγ LBD; [4]): 5.8 µM | EC50 (mRORγ LBD; [5]): 5.8 µM | EC50 (mRORγ; [6]): 3.6 µM | EC50 (mRORγ; [7]): 3.6 µM

CCN(c1ccc(C(O)(C(F)(F)F)C(F)(F)F)cc1)S(=O)(=O)c1ccc(Br)cc1 [OR-1048, 4-Bromo-N-ethyl-N-[4-(2,2,2-trifluoro-1-hydroxy-1-trifluoromethyl-ethyl)-phenyl]-benzene sulfonamide]
Emax [1]: > 80% | EC50 [1]: 570 nM | specificity for RORγ versus LXRα [1]: more specific for RORγ than LXRα | EC50 (mRORγ LBD; [4]): 0.42 µM | EC50 (mRORγ LBD; [5]): 0.42 µM | EC50 (mRORγ; [6]): 0.12 µM | EC50 (mRORγ; [7]): 0.12 µM

CCN(c1ccc(C(O)(C(F)(F)F)C(F)(F)F)cc1)S(=O)(=O)c1ccc(C)cc1 [OR-1052, N-Ethyl-4-methyl-N-[4-(2,2,2-trifluoro-1-hydroxy-1-trifluoromethyl-ethyl)-phenyl]-benzenesulfonamide]
Emax [1]: > 80% | EC50 [1]: 810 nM | specificity for RORγ versus LXRα [1]: more specific for RORγ than LXRα | EC50 (mRORγ LBD; [4]): 0.89 µM | EC50 (mRORγ LBD; [5]): 0.89 µM | EC50 (mRORγ; [6]): 0.21 µM | EC50 (mRORγ; [7]): 0.21 µM

CCn1c(CNc2cccc(Cl)c2)nnc1SCC(=O)Nc1cccc2ccccc12 [OR-133097, 2-{5-[(3-Chloro-phenylamino)-methyl]-4-ethyl-4H-[1,2,4]triazol-3-ylsulfanyl}N-naphthalen-1-yl-acetamide]
EC50 (mRORγ LBD; [8]): 1.34 µM | EC50 (human RORγ): 5 µM | EC50 (mRORγ; [9]): 1.44 µM

CCn1c(CNc2cccc(C(F)(F)F)c2)nnc1SCC(=O)Nc1cccc2ccccc12 [OR-133099, 2-{4-Ethyl-5-[(3-trifluoromethyl-phenylamino)-methyl]-4H-[1,2,4]triazol-3-ylsulfanyl}N-naphthalen-1-yl-acetamide]
EC50 (mRORγ LBD; [8]): 1.33 µM | EC50 (human RORγ): 2.4 µM | EC50 (mRORγ; [9]): 1.04 µM

Cn1c(CNc2cccc(Cl)c2)nnc1SCC(=O)Nc1cccc2ccccc12 [OR-133167, 2-{5-[(3-Chloro-phenylamino)-methyl]-4-methyl-4H-[1,2,4]triazol-3-ylsulfanyl}N-naphthalen-1-yl-acetamide]
EC50 (mRORγ LBD; [8]): 3.4 µM | EC50 (human RORγ): 9.4 µM | EC50 (mRORγ; [9]): 3.3 µM

CCn1c(CNc2ccc(C)c(Cl)c2)nnc1SCC(=O)Nc1cccc2ccccc12 [OR-133171, 2-{5-[(3-Chloro-4-methyl-phenylamino)-methyl]-4-ethyl-4H-[1,2,4]triazol-3-ylsulfanyl}N-naphthalen-1-yl-acetamide]
EC50 (mRORγ LBD; [8]): 0.44 µM | EC50 (human RORγ): 1.7 µM | EC50 (mRORγ; [9]): 0.49 µM

CC(=O)[C@H]1CC[C@H]2[C@@H]3CCC4=CC(=O)CC[C@]4(C)[C@H]3CC[C@]12C [Progesterone, progesterone, reference compound]
Efficacy at hPR [2]: 6X

Cc1cccc(Nc2cc(Cl)nc(SCC(=O)O)n2)c1C [WY14643, reference compound]
Efficacy at hPPARα (hPPARα): 6X

IL-6: exogenous cytokine used for TH-17 differentiation
IL-17 (%) ([3]; 20 ng/ml): 1.20 ± 0.04%

TGFβ1: exogenous cytokine used for TH-17 differentiation
IL-17 (%) ([3]; 4 ng/ml): 0.21 ± 0.02%
